# Values joined by “and” are separate entries in the source; they are usually repeats but may differ in a detail not shown here. Equal entries are not always repeated.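 Test compounds were applied to cells in 96-well plates for 48 hours at 5 doses. GI50 = concentration required for 50% inhibition of growth. TGI is the concentration that stops growth completely.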
# What was measured:
# Experiment in all cases: NCI tumour cell line growth inhibition, 48 h
# A498 renal = test system: A498 renal
# A549 NSCLC = test system: A549 NSCLC
# CAKI-1 renal = test system: CAKI-1 renal
# CCRF-CEM leukemia = test system: CCRF-CEM leukemia
# COLO 205 colon = test system: COLO 205 colon
# DLD-1 colon = test system: DLD-1 colon
# DMS 114 small cell lung = test system: DMS 114 small cell lung
# DMS 273 small cell lung = test system: DMS 273 small cell lung
# EKVX NSCLC = test system: EKVX NSCLC
# HCC-2998 colon = test system: HCC-2998 colon
# HCT-116 colon = test system: HCT-116 colon
# HCT-15 colon = test system: HCT-15 colon
# HL-60(TB) leukemia = test system: HL-60(TB) leukemia
# HOP-18 NSCLC = test system: HOP-18 NSCLC
# HOP-62 NSCLC = test system: HOP-62 NSCLC
# HOP-92 NSCLC = test system: HOP-92 NSCLC
# HT29 colon = test system: HT29 colon
# IGROV1 ovarian = test system: IGROV1 ovarian
# K-562 leukemia = test system: K-562 leukemia
# KM12 colon = test system: KM12 colon
# KM20L2 colon = test system: KM20L2 colon
# LOX IMVI melanoma = test system: LOX IMVI melanoma
# M19-MEL melanoma = test system: M19-MEL melanoma
# MALME-3M melanoma = test system: MALME-3M melanoma
# MCF7 breast = test system: MCF7 breast
# MOLT-4 leukemia = test system: MOLT-4 leukemia
# NCI-H226 lung = test system: NCI-H226 lung
# NCI-H23 lung = test system: NCI-H23 lung
# NCI-H460 lung = test system: NCI-H460 lung
# NCI-H522 lung = test system: NCI-H522 lung
# NCI/ADR-RES ovarian = test system: NCI/ADR-RES ovarian
# OVCAR-3 ovarian = test system: OVCAR-3 ovarian
# OVCAR-4 ovarian = test system: OVCAR-4 ovarian
# OVCAR-5 ovarian = test system: OVCAR-5 ovarian
# OVCAR-8 ovarian = test system: OVCAR-8 ovarian
# P388/ADR leukemia = test system: P388/ADR leukemia
# RPMI-8226 leukemia = test system: RPMI-8226 leukemia
# RXF 393 renal = test system: RXF 393 renal
# SF-268 CNS = test system: SF-268 CNS
# SF-295 CNS = test system: SF-295 CNS
# SF-539 CNS = test system: SF-539 CNS
# SK-MEL-2 melanoma = test system: SK-MEL-2 melanoma
# SK-MEL-28 melanoma = test system: SK-MEL-28 melanoma
# SK-MEL-5 melanoma = test system: SK-MEL-5 melanoma
# SK-OV-3 ovarian = test system: SK-OV-3 ovarian
# SN12C renal = test system: SN12C renal
# SN12K1 renal = test system: SN12K1 renal
# SNB-19 CNS = test system: SNB-19 CNS
# SNB-75 CNS = test system: SNB-75 CNS
# SNB-78 CNS = test system: SNB-78 CNS
# SW-620 colon = test system: SW-620 colon
# U251 CNS = test system: U251 CNS
# UACC-257 melanoma = test system: UACC-257 melanoma
# UACC-62 melanoma = test system: UACC-62 melanoma
# UO-31 renal = test system: UO-31 renal
# XF 498 CNS = test system: XF 498 CNS
# 786-0 renal = test system: 786-0 renal
# ACHN renal = test system: ACHN renal
# BT-549 breast = test system: BT-549 breast
# DU-145 prostate = test system: DU-145 prostate
# HS 578T breast = test system: HS 578T breast
# LXFL 529 NSCLC = test system: LXFL 529 NSCLC
# M14 melanoma = test system: M14 melanoma
# MDA-MB-231 breast = test system: MDA-MB-231 breast
# MDA-MB-435 = test system: MDA-MB-435
# MDA-N = test system: MDA-N
# PC-3 prostate = test system: PC-3 prostate
# SR leukemia = test system: SR leukemia
# T-47D breast = test system: T-47D breast
# TK-10 renal = test system: TK-10 renal
# RXF-631 renal = test system: RXF-631 renal
smiles,measurement,setting,value
CN(C)c1cccc(OC(=O)NCCCl)c1,GI50,A498 renal,13.9 µM
same,TGI,A498 renal,93.6 µM and > 100 µM
same,TGI,A549 NSCLC,> 100 µM
same,TGI,CAKI-1 renal,> 100 µM
same,GI50,CCRF-CEM leukemia,94.6 µM
same,TGI,CCRF-CEM leukemia,> 100 µM
same,TGI,COLO 205 colon,> 100 µM
same,TGI,DLD-1 colon,> 100 µM
same,TGI,DMS 114 small cell lung,> 100 µM
same,TGI,DMS 273 small cell lung,> 100 µM
same,TGI,EKVX NSCLC,> 100 µM
same,TGI,HCC-2998 colon,> 100 µM
same,TGI,HCT-116 colon,> 100 µM
same,TGI,HCT-15 colon,> 100 µM
same,TGI,HL-60(TB) leukemia,> 100 µM
same,TGI,HOP-18 NSCLC,> 100 µM
same,TGI,HOP-62 NSCLC,> 100 µM
same,GI50,HOP-92 NSCLC,> 100 µM
same,TGI,HOP-92 NSCLC,> 100 µM
same,TGI,HT29 colon,> 100 µM
same,TGI,IGROV1 ovarian,> 100 µM
same,TGI,K-562 leukemia,> 100 µM
same,TGI,KM12 colon,> 100 µM
same,GI50,KM20L2 colon,> 100 µM
same,TGI,KM20L2 colon,> 100 µM
same,TGI,LOX IMVI melanoma,> 100 µM
same,TGI,M19-MEL melanoma,> 100 µM
same,GI50,MALME-3M melanoma,> 100 µM
same,TGI,MALME-3M melanoma,> 100 µM
same,TGI,MCF7 breast,> 100 µM
same,TGI,MOLT-4 leukemia,> 100 µM
same,TGI,NCI-H226 lung,> 100 µM
same,TGI,NCI-H23 lung,> 100 µM
same,TGI,NCI-H460 lung,> 100 µM
same,TGI,NCI-H522 lung,> 100 µM
same,TGI,NCI/ADR-RES ovarian,> 100 µM
same,TGI,OVCAR-3 ovarian,> 100 µM
same,TGI,OVCAR-4 ovarian,> 100 µM
same,TGI,OVCAR-5 ovarian,> 100 µM
same,TGI,OVCAR-8 ovarian,> 100 µM
same,TGI,P388/ADR leukemia,> 100 µM
same,GI50,RPMI-8226 leukemia,> 100 µM
same,TGI,RPMI-8226 leukemia,> 100 µM
same,GI50,RXF 393 renal,> 100 µM
same,TGI,RXF 393 renal,> 100 µM
same,TGI,SF-268 CNS,> 100 µM
same,TGI,SF-295 CNS,> 100 µM
same,TGI,SF-539 CNS,> 100 µM
same,TGI,SK-MEL-2 melanoma,> 100 µM
same,TGI,SK-MEL-28 melanoma,> 100 µM
same,TGI,SK-MEL-5 melanoma,> 100 µM
same,TGI,SK-OV-3 ovarian,> 100 µM
same,TGI,SN12C renal,> 100 µM
same,TGI,SN12K1 renal,> 100 µM
same,TGI,SNB-19 CNS,> 100 µM
same,GI50,SNB-75 CNS,> 100 µM
same,TGI,SNB-75 CNS,> 100 µM
same,GI50,SNB-78 CNS,> 100 µM
same,TGI,SNB-78 CNS,> 100 µM
same,TGI,SW-620 colon,> 100 µM
same,TGI,U251 CNS,> 100 µM
same,TGI,UACC-257 melanoma,> 100 µM
same,TGI,UACC-62 melanoma,> 100 µM
same,TGI,UO-31 renal,> 100 µM
same,TGI,XF 498 CNS,> 100 µM
Nc1ccc(Cn2ccc3c4c(N)nc(N)nc4ccc32)cc1,TGI,786-0 renal,16.4 µM
same,TGI,A549 NSCLC,15.2 µM
same,TGI,ACHN renal,6.58 µM
same,TGI,BT-549 breast,16.4 µM
same,TGI,CAKI-1 renal,18 µM
same,TGI,CCRF-CEM leukemia,2.71 µM
same,TGI,COLO 205 colon,2.72 µM
same,TGI,DLD-1 colon,17 µM
same,TGI,DMS 114 small cell lung,1.94 µM
same,TGI,DMS 273 small cell lung,11.9 µM
same,TGI,DU-145 prostate,14.3 µM
same,TGI,EKVX NSCLC,23.1 µM
same,TGI,HCC-2998 colon,3 µM
same,TGI,HCT-116 colon,1.5 µM
same,TGI,HCT-15 colon,17.6 µM
same,TGI,HL-60(TB) leukemia,1.37 µM
same,TGI,HOP-18 NSCLC,21.9 µM
same,TGI,HOP-62 NSCLC,5.09 µM
same,TGI,HOP-92 NSCLC,8.7 µM
same,TGI,HS 578T breast,7.32 µM
same,TGI,HT29 colon,2.18 µM
same,TGI,IGROV1 ovarian,18.7 µM
same,TGI,K-562 leukemia,2.44 µM
same,TGI,KM12 colon,12.2 µM
same,TGI,KM20L2 colon,10.8 µM
same,TGI,LOX IMVI melanoma,1.21 µM
same,TGI,LXFL 529 NSCLC,15.7 µM
same,TGI,M14 melanoma,6.45 µM
same,TGI,M19-MEL melanoma,5.59 µM
same,TGI,MALME-3M melanoma,7.04 µM
same,TGI,MCF7 breast,14.3 µM
same,TGI,MDA-MB-231 breast,3.48 µM
same,TGI,MDA-MB-435,6.15 µM
same,TGI,MDA-N,14.2 µM
same,TGI,MOLT-4 leukemia,> 51.7 µM
same,TGI,NCI-H226 lung,27.7 µM
same,TGI,NCI-H23 lung,7.86 µM
same,TGI,NCI-H460 lung,5.58 µM
same,TGI,NCI-H522 lung,3.72 µM
same,TGI,NCI/ADR-RES ovarian,> 100 µM
same,TGI,OVCAR-3 ovarian,2.51 µM
same,TGI,OVCAR-4 ovarian,4.75 µM
same,TGI,OVCAR-5 ovarian,19.4 µM
same,TGI,OVCAR-8 ovarian,22 µM
same,TGI,PC-3 prostate,16.8 µM
same,TGI,RPMI-8226 leukemia,> 100 µM
same,TGI,RXF 393 renal,15.4 µM
same,TGI,SF-268 CNS,25.6 µM
same,TGI,SF-295 CNS,2.15 µM
same,TGI,SF-539 CNS,4.15 µM
same,TGI,SK-MEL-2 melanoma,5.15 µM
same,TGI,SK-MEL-28 melanoma,5.32 µM
same,TGI,SK-MEL-5 melanoma,8.24 µM
same,TGI,SK-OV-3 ovarian,25.4 µM
same,TGI,SN12C renal,8.67 µM
same,TGI,SNB-19 CNS,17.6 µM
same,TGI,SNB-75 CNS,12.5 µM
same,TGI,SNB-78 CNS,32.5 µM
same,TGI,SR leukemia,4.74 µM
same,TGI,SW-620 colon,2.27 µM
same,TGI,T-47D breast,6.18 µM
same,TGI,TK-10 renal,13.6 µM
same,TGI,U251 CNS,5.02 µM
same,TGI,UACC-257 melanoma,8.02 µM
same,TGI,UACC-62 melanoma,1.5 µM
same,TGI,UO-31 renal,19 µM
same,TGI,XF 498 CNS,2.9 µM
O=C1C(Cl)=C(Cl)C(=O)N1c1cccc(C(F)(F)F)c1,TGI,786-0 renal,> 100 µM
same,TGI,A498 renal,> 100 µM
same,TGI,A549 NSCLC,> 100 µM
same,TGI,ACHN renal,> 100 µM
same,TGI,CAKI-1 renal,98 µM
same,TGI,CCRF-CEM leukemia,> 85.3 µM
same,TGI,COLO 205 colon,> 100 µM
same,TGI,DLD-1 colon,> 100 µM
same,TGI,DMS 114 small cell lung,> 100 µM
same,TGI,DMS 273 small cell lung,> 100 µM
same,TGI,EKVX NSCLC,> 100 µM
same,TGI,HCC-2998 colon,> 100 µM
same,TGI,HCT-116 colon,> 100 µM
same,TGI,HCT-15 colon,> 100 µM
same,TGI,HL-60(TB) leukemia,> 100 µM
same,TGI,HOP-18 NSCLC,> 100 µM
same,TGI,HOP-62 NSCLC,> 100 µM
same,TGI,HOP-92 NSCLC,> 100 µM
same,TGI,HT29 colon,> 100 µM
same,TGI,IGROV1 ovarian,> 100 µM
same,TGI,K-562 leukemia,> 100 µM
same,TGI,KM12 colon,> 100 µM
same,TGI,KM20L2 colon,> 100 µM
same,TGI,LOX IMVI melanoma,> 100 µM
same,TGI,LXFL 529 NSCLC,> 100 µM
same,TGI,M14 melanoma,> 100 µM
same,TGI,M19-MEL melanoma,> 100 µM
same,TGI,MALME-3M melanoma,> 100 µM
same,TGI,MOLT-4 leukemia,> 86.6 µM
same,TGI,NCI-H226 lung,> 100 µM
same,TGI,NCI-H23 lung,> 100 µM
same,TGI,NCI-H460 lung,> 100 µM
same,TGI,NCI-H522 lung,26.4 µM
same,TGI,OVCAR-3 ovarian,> 100 µM
same,TGI,OVCAR-4 ovarian,> 100 µM
same,TGI,OVCAR-5 ovarian,> 100 µM
same,TGI,OVCAR-8 ovarian,> 100 µM
same,TGI,RPMI-8226 leukemia,> 100 µM
same,TGI,RXF 393 renal,70 µM
same,TGI,RXF-631 renal,> 100 µM
same,TGI,SF-268 CNS,> 100 µM
same,TGI,SF-295 CNS,> 100 µM
same,TGI,SF-539 CNS,> 100 µM
same,TGI,SK-MEL-2 melanoma,> 100 µM
same,TGI,SK-MEL-28 melanoma,> 100 µM
same,TGI,SK-MEL-5 melanoma,> 100 µM
same,TGI,SK-OV-3 ovarian,> 100 µM
same,TGI,SN12C renal,> 100 µM
same,TGI,SNB-19 CNS,> 100 µM
same,TGI,SNB-75 CNS,> 100 µM
same,TGI,SNB-78 CNS,> 100 µM
same,TGI,SR leukemia,> 100 µM
same,TGI,SW-620 colon,> 100 µM
same,TGI,TK-10 renal,> 100 µM
same,TGI,U251 CNS,> 100 µM
same,TGI,UACC-257 melanoma,> 100 µM
same,TGI,UACC-62 melanoma,> 100 µM
same,TGI,UO-31 renal,> 100 µM
same,TGI,XF 498 CNS,> 100 µM

# Reference: PubChem BioAssay (NCI)
